Measured values published in patent US11202783B2, “Use of aminoalkylbenzothiazepine derivatives” (CJ Healthcare Corporation, priority 2017, dated 2021).

Assays:
Assay type in all cases: in vivo, C57BL/6J mice
NAFLD-induced mice [1] = assay: Degree of liver fibrosis by Sirius Red staining in STZ and high-fat diet NAFLD mouse model (Example 3); conditions: 10 mg/kg; fibrosis area increased by NASH induction; FIG. 6
Procedure: (§1) Two-day-old C57BL/6J mice were administered with streptozotocin (STZ, 200 μg). Since the time the mice were 5 weeks old, they were supplied with a high-fat diet (60% fat) so as to induce NAFLD. The mouse model is an experimental animal model that is known to be capable of inducing diseases ranging from diabetes, fatty liver, steatohepatitis, liver fibrosis, to liver cancer within a short period of time of 20 weeks of age. […] The steatosis scores and relative mRNA expression levels were calculated in the same manner as in Example 1, and the results are shown in FIGS. 3 and 4, respectively. The calculated results were expressed in mean and standard deviation, and the significance of statistical differences between the groups was confirmed using Student's t-test (*; p<0.05).
As in Example 2, vehicle or Compound 1 at a dose of 10 mg/kg was administered to the animal model in which NAFLD was induced by STZ administration and a high-fat diet. […] NAS values were respectively calculated for Normal group, the vehicle group, Compound 1 (10 mg/kg) group, and the two comparative groups (OCA-administered and compound A-administered groups), as shown in Table 2. […] For example, when NAS value is 3 to 4 points, the mouse can be suspected to have non-alcoholic steatohepatitis (NASH), whereas when NAS value is 5 points or higher, the mouse can be determined to have NASH. […]

[2] = tested on: mRNA expression levels of Srebp1, TIMP1 and Col1a1 in liver tissues; assay: Liver mRNA expression by qRT-PCR in mouse model of NAFLD induced by high-fat high-cholesterol diet (Example 1); conditions: 0.016% in diet, 12 weeks; vs Control group; relative to Normal group; FIG. 2
Text: (§2) Eight-week-old C57BL/6J mice were supplied with a high-fat high-cholesterol diet (60% fat and 0.5% cholesterol) and drinking water containing 4.2% fructose for 16 weeks so as to induce non-alcoholic fatty liver disease (NAFLD).
(§3) After the supply of a high-fat high-cholesterol diet for 4 weeks, the diet was replaced with another high-fat high-cholesterol diet prepared to contain Compound 1 at a concentration of 0.016% and supplied for an additional 12 weeks, and the livers were removed by autopsy on the final day of the test. Parts of the removed livers were fixed in a 10% formalin solution for histopathology and tissue slides were prepared therefrom and subjected to H&E staining, whereas other parts of the removed livers were used for quantitative real-time PCR (qRT-PCR) analysis.
(§4) Furthermore, the relative expression level of mRNA in Normal group was calculated by qRT-PCR. Specifically, the mRNA expression levels of Srebp1 (i.e., a gene marker associated with lipid synthesis), and TIMP1 and Col1a1 (i.e., gene markers associated with fibrosis), etc. were measured through the SYBR-green RT-PCR analysis of the removed liver tissues described above, and the relative expression levels were calculated based on those of Normal group and are shown in FIG. 2. The calculated data were expressed in mean and standard deviation, and the significance of statistical differences between groups was confirmed using Student's t-test (*; p<0.05).

NAFLD-induced mice [3] = assay: Steatosis score (H&E histology) in mouse model of NAFLD induced by high-fat high-cholesterol diet and fructose drinking water (Example 1); conditions: high-fat high-cholesterol diet containing 0.016% of compound for 12 weeks; vs Control group; FIG. 1
Text: as §2, §3
The normal mice (not induced with NAFLD, denoted by “Normal” in drawings) and the mice induced with NAFLD using a high-fat high-cholesterol diet and fructose-containing drinking water (denoted by “Control” in drawings) were used as the control group. […]

[4] = Blood lipid levels in STZ and high-fat diet NAFLD mouse model (Example 4); conditions: 1 mg/kg, 3 mg/kg, and 10 mg/kg; compared to vehicle administered group; FIG. 7
Procedure: as §1
Blood specimens were secured before autopsy by collecting blood samples from an experimental animal model prepared as in Example 2, in which NAFLD was induced by administering STZ and supplying a high-fat diet, and to which Compound 1 was administered at doses of 1 mg/kg, 3 mg/kg, and 10 mg/kg. The obtained blood samples were centrifuged to separate blood plasma, and the remaining samples were analyzed for blood lipid levels (e.g., levels of total cholesterol, high-density lipoprotein (HDL), and low-density lipoprotein (LDL)) using a biochemical analyzer (Hitachi 7100), and the results are shown in FIG. 7. […]

NAFLD-induced mice [5] = assay: Steatosis score in mouse model of NAFLD induced by STZ administration and high-fat diet (Example 2); conditions: oral, FIG. 3
Procedure: The normal mice (not induced with NAFLD, denoted by “Normal” in drawings) and the mice induced with NAFLD using a high-fat high-cholesterol diet and fructose-containing drinking water (denoted by “Control” in drawings) were used as the control group. Specifically, histological scoring was performed in the same manner as in the clinical pathology scoring as follows: score 0 when the area occupied by fat in the liver tissue is less than 5%, score 1 when the area occupied by fat in the liver tissue is 5% to 33%, score 2 when the area occupied by fat in the liver tissue is 34% to 66%, and score 3 when the area occupied by fat in the liver tissue exceeds 66%.
as §1, with “NAFLD.” for “NAFLD. The mouse model is an experimental animal model that is known to be capable of inducing diseases ranging from diabetes, fatty liver, steatohepatitis, liver fibrosis, to liver cancer within a short period of time of 20 weeks of age.”

NAFLD-induced mice [6] = assay: NAFLD activity score (NAS) in mouse model of NAFLD induced by STZ administration and high-fat diet (Example 3); conditions: 10 mg/kg; for Steatosis Score 0 (number of mice): score 0 = <5%; for Hepatocyte Ballooning Score 0 (number of mice): score 0 = None; for Steatosis Score 1 (number of mice): score 1 = 5% to 33%; for Lobular Inflammation Score 1 (number of mice): score 1 = <2 Foci/200×; for Hepatocyte Ballooning Score 1 (number of mice): score 1 = Some balloon cells; for Lobular Inflammation Score 2 (number of mice): score 2 = 2 to 4 Foci/200×; for Lobular Inflammation Score 3 (number of mice): score 3 = >4 Foci/200×
Procedure: Two-day-old C57BL/6J mice were administered with streptozotocin (STZ, 200 μg). Since the time the mice were 5 weeks old, they were supplied with a high-fat diet (60% fat) so as to induce NAFLD. The mouse model is an experimental animal model that is known to be capable of inducing diseases ranging from diabetes, fatty liver, steatohepatitis, liver fibrosis, to liver cancer within a short period of time of 20 weeks of age. Specifically, since the time the mice were 6 weeks old, they were orally administered with vehicle (0.5% hydroxypropyl methylcellulose+0.1% Tween 80) or Compound 1, which were prepared at various concentrations, at each concentration of 1 mg/kg, 3 mg/kg, and 10 mg/kg for 4 weeks, and the livers were removed by autopsy on the final day of the test. Parts of the removed livers were fixed in a 10% formalin solution for histopathology and tissue slides were prepared therefrom and subjected to H&E staining, whereas other parts of the removed livers were used for qRT-PCR analysis. The steatosis scores and relative mRNA expression levels were calculated in the same manner as in Example 1, and the results are shown in FIGS. 3 and 4, respectively. The calculated results were expressed in mean and standard deviation, and the significance of statistical differences between the groups was confirmed using Student's t-test (*; p<0.05).
As in Example 2, vehicle or Compound 1 at a dose of 10 mg/kg was administered to the animal model in which NAFLD was induced by STZ administration and a high-fat diet. […] Additionally, two comparative groups were prepared by administering each of obeticholic acid (OCA, product name: Ocaliva) and compound A (having the same mechanism of action with Compound 1) at a dose of 10 mg/kg each, instead of vehicle or Compound 1. NAS values were respectively calculated for Normal group, the vehicle group, Compound 1 (10 mg/kg) group, and the two comparative groups (OCA-administered and compound A-administered groups), as shown in Table 2. NAS represents the sum of the scores for respective symptoms, i.e., steatosis, lobular inflammation, and hepatocyte ballooning, and the scoring for each symptom was based on the criteria described in Table 1 below. Each group consisted of 8 mice, and the NAS value is defined as the sum of the mean scores from each symptom. As NAS value is higher, NAFLD is more severe. For example, when NAS value is 3 to 4 points, the mouse can be suspected to have non-alcoholic steatohepatitis (NASH), whereas when NAS value is 5 points or higher, the mouse can be determined to have NASH.

[7] = tested on: expression levels of the gene (mRNA) associated with lipid synthesis, inflammation, and fibrosis; assay: Liver mRNA expression by qRT-PCR in mouse model of NAFLD induced by STZ administration and high-fat diet (Example 2); conditions: oral, 1 mg/kg, 3 mg/kg, and mg/kg for 4 weeks; vs Control group; FIG. 4
Procedure: as §4
as §1, with “NAFLD.” for “NAFLD. The mouse model is an experimental animal model that is known to be capable of inducing diseases ranging from diabetes, fatty liver, steatohepatitis, liver fibrosis, to liver cancer within a short period of time of 20 weeks of age.”

SMILES: CCCCC1(CCCC)CN(c2ccc(F)cc2)c2cc(SC)c(CNCC(=O)O)cc2S(=O)(=O)C1 [Compound 1, 2-(((3,3-dibutyl-5-(4-fluorophenyl)-7-methylthio-1,1-dioxido-2,3,4,5-tetrahydrobenzo[b][1,4]thiazepin-8-yl)methyl)amino)acetic acid]
- fibrosis area (Sirius Red positive area) (NAFLD-induced mice [1]): significant decrease in the fibrosis area
- mRNA level of Col1a1 (liver) [2]: remarkable decrease with statistical significance
- mRNA level of Srebp1 (liver) [2]: remarkable decrease with statistical significance
- mRNA level of TIMP1 (liver) [2]: remarkable decrease with statistical significance
- steatosis score (NAFLD-induced mice [3]): significant decrease in steatosis score close to that of Normal group
- blood level of HDL [4]: higher level of HDL
- blood level of LDL [4]: lower level of LDL
- steatosis score (NAFLD-induced mice [5]; 1 mg/kg, 3 mg/kg and 10 mg/kg for 4 weeks, vs vehicle Control group): lower steatosis scores
- steatosis score (NAFLD-induced mice [5]; dose of 1 mg/kg for 4 weeks, vs vehicle): reduced steatosis score
- NAS (NAFLD activity score) (NAFLD-induced mice [6]; compared to comparative groups OCA and Compound A at identical dose, FIG. 5): significantly reduced NAS values
- Steatosis Score 0 (number of mice) (NAFLD-induced mice [6]; n=8 mice per group): 4
- Hepatocyte Ballooning Score 0 (number of mice) (NAFLD-induced mice [6]; n=8 mice per group): 6
- Steatosis Score 1 (number of mice) (NAFLD-induced mice [6]; n=8 mice per group): 4
- Lobular Inflammation Score 1 (number of mice) (NAFLD-induced mice [6]; n=8 mice per group): 2
- Hepatocyte Ballooning Score 1 (number of mice) (NAFLD-induced mice [6]; n=8 mice per group): 1
- Lobular Inflammation Score 2 (number of mice) (NAFLD-induced mice [6]; n=8 mice per group): 5
- Hepatocyte Ballooning Score 2 (number of mice) (NAFLD-induced mice [6]; n=8 mice per group, score 2 = Many cells/Prominent ballooning): 1
- Lobular Inflammation Score 3 (number of mice) (NAFLD-induced mice [6]; n=8 mice per group): 1
- expression levels of the gene (mRNA) associated with lipid synthesis, inflammation, and fibrosis [7]: significant decreases

SMILES: CC[C@H]1[C@@H](O)[C@@H]2[C@H](CC[C@]3(C)[C@@H]([C@H](C)CCC(=O)O)CC[C@@H]23)[C@@]2(C)CC[C@@H](O)C[C@@H]12 [OCA, obeticholic acid, reference compound]
- Steatosis Score 0 (number of mice) (NAFLD-induced mice [6]; n=8 mice per group): 2
- Hepatocyte Ballooning Score 0 (number of mice) (NAFLD-induced mice [6]; n=8 mice per group): 4
- Steatosis Score 1 (number of mice) (NAFLD-induced mice [6]; n=8 mice per group): 6
- Lobular Inflammation Score 1 (number of mice) (NAFLD-induced mice [6]; n=8 mice per group): 1
- Hepatocyte Ballooning Score 1 (number of mice) (NAFLD-induced mice [6]; n=8 mice per group): 4
- Lobular Inflammation Score 2 (number of mice) (NAFLD-induced mice [6]; n=8 mice per group): 5
- Lobular Inflammation Score 3 (number of mice) (NAFLD-induced mice [6]; n=8 mice per group): 2
